We go through seven compounds from PubChem BioAssay (NCI).

What all share (assay): inhibition of tumour cell growth, NCI panel, 48 h
In test [1] the test system is LOX IMVI melanoma.
The subject of test [2] is SK-MEL-5 melanoma.
Test [3] concerns MOLT-4 leukemia.
The subject of test [4] is 786-0 renal.
The subject of test [5] is RXF 393 renal.
Test [6] has as its system ACHN renal.
Test [7] deals with SK-OV-3 ovarian.
Test [8] concerns PC-3 prostate.
For test [9], the system named is RPMI-8226 leukemia.
The subject of test [10] is EKVX NSCLC.

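Growth conditions: 96-well plates. Treatment: test compound, 48 hours, 5 concentrations. Analysis: linear interpolation between bracketing concentrations; unreached endpoints set to highest concentration. GI50 is the concentration that inhibits growth by half. The concentration for full growth arrest is given as TGI.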

`CC(C)c1c(C(=O)Nc2ccccc2)c(-c2ccccc2)c(-c2ccc(F)cc2)n1CC[C@@H](O)C[C@@H](O)CC(=O)O`: the GI50 in test [1] was 3.11 µM; in [2], 9.95 µM; in [3] it was 28.8 µM; in [4] it was 22.3 µM; in test [5], 8.75 µM; in test [6] it was 6.67 µM. Besides, the GI50 in test [7] was 63.7 µM; in test [8], 7.31 µM; in test [9], 16.6 µM; in test [10], 49.4 µM. Besides, the TGI in [1] is 22.9 µM; in [2], 25.4 µM; in [3] it was 99.2 µM; in [4] it was over 81.2 µM; in test [5] it was 47.2 µM; in test [6], over 91.2 µM. Also, the TGI in test [7], in [8], in test [9] and in [10] was over 100 µM in each case.
For the compound `COc1cc(C(=O)N[C@@H]2CCCN(C)C2)ccc1Nc1ncc2c(n1)N(C1CCCC1)CC(C)(C)C(=O)N2C`, the GI50 in test [1] is 0.0541 µM; in test [2], 0.123 µM; in [3], 0.0417 µM; in test [4], 0.308 µM; in test [5], 0.0427 µM; in test [6], 1.55 µM. In addition, the GI50 in [7] is 0.0484 µM; in test [8] it was 0.0646 µM; in test [9], 1.25 µM; in test [10], 1.11 µM. In addition, the TGI in test [1] amounted to 1.87 µM; in test [2], 1.56 µM; in [3], 3.89 µM; in [4] it was 6.43 µM; in [5] it was 8.99 µM; in test [6], 19.4 µM. Further, the TGI in test [7] amounted to 2.42 µM; in test [8], 19.9 µM; in [9], 19.4 µM; in [10], 24 µM.
Turning to `C/C=C/C(C/C=C(\C)CO[Si](C)(C)C(C)(C)C)O[Si](C)(C)C(C)(C)C` (centres undefined), the TGI in test [1], in test [2], in test [3], in test [4], in test [5] and in [6] was over 100 µM throughout. Besides, the TGI in test [7], in test [8], in test [9] and in test [10] was over 100 µM each time.
With `c1c[nH]c(CN2CCN(Cc3ncc[nH]3)CC2)n1`, the TGI in test [1], in [2], in test [3], in [4], in test [5] and in test [6] was over 100 µM throughout. Moreover, the TGI in test [7], in test [8], in test [9] and in test [10] was over 100 µM throughout.
As for `CC1(C)CCC(c2ccc(Cl)cc2)=C(CN2CCN(c3ccc(C(=O)NS(=O)(=O)c4ccc(N[C@H](CCN5CCOCC5)CSc5ccccc5)c(S(=O)(=O)C(F)(F)F)c4)cc3)CC2)C1`, the GI50 was 1.4 µM in test [1]; 1.57 µM in test [2]; 0.124 µM in [3]; 1.88 µM in test [4]; 0.322 µM in test [5]; 1.72 µM in test [6]. For the same compound, the GI50 in test [7] was 1.28 µM; in test [8], 1.68 µM; in test [9], 0.342 µM; in [10], 1.43 µM. The TGI in test [1] stood at 2.74 µM; in test [2] it was 2.93 µM; in test [4] it was 3.4 µM; in test [5] it was 1.94 µM; in test [6], 3.14 µM; in [7], 2.68 µM. For the same compound, the TGI in [8] stood at 4.5 µM; in [9], 4.33 µM; in [10], 3.24 µM.
As to `CCn1nc(C#Cc2c(C)ccc3c(Nc4ccc(Cl)cc4)nccc23)c2c(N)ncnc21`, the GI50 is 1.81 µM in test [1]; 2.14 µM in test [2]; 4.32 µM in test [3]; 3.66 µM in test [4]; 2.63 µM in test [5]; 5.31 µM in [6]. Also, the GI50 in test [7] is 4.38 µM; in test [8] it was 3.03 µM; in test [9], 3.77 µM; in test [10] it was 7.4 µM. Also, the TGI is over 100 µM in test [1]; 6.55 µM in test [2]; over 100 µM in test [3]; over 100 µM in test [4]; 8.98 µM in [5]; over 100 µM in test [6]. Besides, the TGI in [7], in [8], in test [9] and in test [10] was over 100 µM in each case.
For `C=C(C)[C@@H]1CC[C@]2(C(=O)OC)CC[C@]3(C)[C@H](CC[C@@H]4[C@@]5(C)CC/C(=N\OCCC(=NCCC#N)NOCCC#N)C(C)(C)[C@@H]5CC[C@]43C)[C@@H]12`, the GI50 in test [1] was 4.32 µM; in [2] it was 3.02 µM; in [3], 2.52 µM; in test [4], 6.42 µM; in test [5], 5.64 µM; in test [6], 10.5 µM. Moreover, the GI50 in test [7] is 10.8 µM; in test [8] it was 2.26 µM; in [9] it was 4.91 µM; in test [10], 4.77 µM. The TGI in test [1] is 10.4 µM; in test [2], 10 µM; in [3] it was 13 µM; in test [4], 16.4 µM; in test [5], 16.6 µM; in test [6] it was over 50 µM. In addition, the TGI is over 50 µM in [7], over 50 µM in [8], 42.7 µM in test [9] and over 50 µM in test [10].
